A word on the IC50: it is the concentration that gives 50% inhibition. Higher therefore signals lower potency.

These results are taken from patent US10000476B2, “Pyridone derivative, pharmaceutical containing the same and methods of use thereof” (KAKEN PHARMACEUTICAL CO., LTD., priority 2011, dated 2018).

Some results are limits rather than exact numbers.

TACE, sequence (P78536 215-824): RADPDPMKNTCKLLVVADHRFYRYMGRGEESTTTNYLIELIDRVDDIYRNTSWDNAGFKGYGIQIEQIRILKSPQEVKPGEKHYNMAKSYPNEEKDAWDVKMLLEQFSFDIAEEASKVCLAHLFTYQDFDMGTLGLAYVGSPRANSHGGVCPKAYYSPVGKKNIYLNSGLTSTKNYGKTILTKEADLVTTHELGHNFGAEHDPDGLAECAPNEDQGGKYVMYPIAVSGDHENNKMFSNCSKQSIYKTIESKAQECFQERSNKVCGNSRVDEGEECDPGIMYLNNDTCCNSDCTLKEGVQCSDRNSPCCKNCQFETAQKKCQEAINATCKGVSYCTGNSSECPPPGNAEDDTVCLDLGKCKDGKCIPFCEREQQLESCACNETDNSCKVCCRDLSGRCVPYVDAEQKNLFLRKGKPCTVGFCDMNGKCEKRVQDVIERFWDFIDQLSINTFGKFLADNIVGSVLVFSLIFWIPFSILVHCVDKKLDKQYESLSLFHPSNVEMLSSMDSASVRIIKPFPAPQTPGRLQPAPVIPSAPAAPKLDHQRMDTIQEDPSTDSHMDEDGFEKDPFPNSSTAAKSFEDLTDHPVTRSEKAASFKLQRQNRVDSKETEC

The test has as its target TACE (Homo sapiens (Human), UniProt P78536). As to the kind of experiment: TACE inhibition test (in vitro). The note with it: fluorescent synthetic substrate, 37° C., 1.5 hours. It counts as biochemical. On the procedure: The nucleotide sequence of TACE has been reported by Moss et al. (Moss, M. L. et al., Nature 1997, 385, 733-736). Accordingly, the cDNA of TACE was obtained according to the prescribed method from THP-1 cells or the like, and then incorporated the cDNA into an expression vector. Next, this vector was transformed into mammalian cells or insect cells, and TACE expression was obtained.
The TACE inhibition test was carried out by measuring TACE activity in the presence and the absence of the test substance using the thus-obtained TACE as an enzyme, and a fluorescent synthetic substrate Nma(N-methylanthranilic acid)-Leu-Ala-Gln-Ala-Val-Arg-Ser-Ser-Lys(Dnp(dinitrophenyl))-D-Arg-NH2 (SEQ ID NO: 1) including the TACE-cleaved sequence of a membrane-bound TNF as a substrate. The TACE inhibition test method is shown below.
Namely, 90 μL of an enzyme solution prepared with an assay buffer A (50 mM tris-hydrochloric acid buffer (pH 7.5) including 200 mM sodium chloride, 5 mM calcium chloride, 10 μM zinc sulfate, and 2 mg/mL bovine serum albumin) and 90 μL of a fluorescent synthetic substrate prepared with an assay buffer B (50 mM tris-hydrochloric acid buffer (pH 7.5) including 200 mM sodium chloride, 5 mM calcium chloride, 10 μM zinc sulfate, and 0.05% PLURONIC F-68) were mixed together, and reacted at 37° C. for 1.5 hours. Enzyme activity was then determined by measuring with a fluorescence intensity meter (Labsystems, Fluoroskan Ascent) at an excitation wavelength of 355 nm and a measurement wavelength of 460 nm.
From the enzyme activity in the presence or the absence of the test substance, the inhibition rate was determined, and the 50% inhibitiory concentration (IC50) of the test substance was calculated.
Molecule `Cc1cccn(CC2(c3cccc(-c4ccncc4)c3)NC(=O)NC2=O)c1=O` (centres unmarked) [Compound I-95] registered a half-inhibitory concentration (IC50) of under 100 nM. The figure for `Cc1cccn(CC2(c3ccc(Oc4cccc(C(F)(F)F)c4)cc3)NC(=O)NC2=O)c1=O` (centres unmarked) [Compound I-100] is under 100 nM.

`COc1cc(F)ccc1C1(Cn2cccc(C)c2=O)NC(=O)NC1=O` (centres unmarked) [Compound I-21, 5-(4-fluoro-2-methoxyphenyl)-5-[(3-methyl-2-oxopyridin-1(2H)-yl)methyl]imidazolidine-2,4-dione] registered a 50% inhibitory concentration (IC50) of under 100 nM. In the case of `Cc1cccn(CC2(c3ccc(-c4cccnc4)cc3)NC(=O)NC2=O)c1=O` (centres unmarked) [Compound I-32, 5-[(3-methyl-2-oxopyridin-1(2H)-yl)methyl]-5-[4-(pyridin-3-yl)phenyl]imidazolidine-2,4-dione] it was under 100 nM; in that of `COc1ccc(C2(Cn3cccc(F)c3=O)NC(=O)NC2=O)cc1` (centres unmarked) [Compound I-133], under 100 nM. In the case of `O=C1NC(=O)C(Cn2cccc(Cl)c2=O)(c2ccc(Cc3ccccc3)cc2)N1` (centres unmarked) [Compound I-150] it was under 100 nM; in that of `Cc1cccn(CC2(c3ccc(C#Cc4ccccn4)cc3)NC(=O)NC2=O)c1=O` (centres unmarked) [Compound I-110], under 100 nM; in that of `Cc1cccn(CC2(c3ccc(-c4ccncc4)cc3)NC(=O)NC2=O)c1=O` (centres unmarked) [Compound I-31, 5-[(3-methyl-2-oxopyridin-1(2H)-yl)methyl]-5-[4-(pyridin-4-yl)phenyl]imidazolidine-2,4-dione], under 100 nM. Regarding `Cc1cccn(CC2(c3ccc(Oc4cccc(F)c4)c(F)c3)NC(=O)NC2=O)c1=O` (centres unmarked) [Compound I-112], the IC50 was under 100 nM.

`Cc1cccc(Oc2ccc(C3(Cn4cccc(C)c4=O)NC(=O)NC3=O)cc2)c1` (centres unmarked) [Compound I-80] had a 50% inhibitory concentration (IC50) of under 100 nM.

With `Cc1cccn(CC2(c3ccc(C(C)C)cc3)NC(=O)NC2=O)c1=O` (centres unmarked) [Compound I-117], the IC50 was under 100 nM. Molecule `COc1cccc(C2(Cn3cccc(C)c3=O)NC(=O)NC2=O)c1` (centres unmarked) [Compound I-4, 5-(3-methoxyphenyl)-5-[(3-methyl-2-oxopyridin-1(2H)-yl)methyl]imidazolidine-2,4-dione] showed an IC50 of under 100 nM. In the case of `Cc1cccn(CC2(c3ccc(Oc4cccnc4)c(F)c3)NC(=O)NC2=O)c1=O` (centres unmarked) [Compound I-122] it was under 100 nM; in that of `COc1cccn(CC2(c3ccccc3)NC(=O)NC2=O)c1=O` (centres unmarked) [Compound I-143], 100 to 1000 nM; in that of `Cc1cccn(CC2(c3ccc4c(c3)CCCO4)NC(=O)NC2=O)c1=O` (centres unmarked) [Compound I-26, 5-(chroman-6-yl)-5-[(3-methyl-2-oxopyridin-1(2H)-yl)methyl]imidazolidine-2,4-dione], under 100 nM.

`COc1ccccc1Oc1ccc(C2(Cn3cccc(C)c3=O)NC(=O)NC2=O)cc1` (centres unmarked) [Compound I-113]: the 50% inhibitory concentration (IC50) is under 100 nM. In the case of `O=C1NC(=O)C(Cn2ccccc2=O)(c2ccccc2)N1` (centres unmarked) [Compound I-46, 5-[(2-oxopyridin-1(2H)-yl)methyl]-5-phenylimidazolidine-2,4-dione] it was under 100 nM. In turn, `Cc1cccn(CC2(c3cc(F)c(F)c(F)c3)NC(=O)NC2=O)c1=O` (centres unmarked) [Compound I-44, 5-[(3-methyl-2-oxopyridin-1(2H)-yl)methyl]-5-(3,4,5-trifluorophenyl)imidazolidine-2,4-dione] gave a concentration for half-maximal inhibition (IC50) of under 100 nM. The molecule `Cc1cccn(CC2(c3ccccc3OCc3ccccc3)NC(=O)NC2=O)c1=O` (centres unmarked) [Compound I-68] gave an IC50 of 100 to 1000 nM. The molecule `COc1ccncc1-c1ccc(C2(Cn3cccc(C)c3=O)NC(=O)NC2=O)cc1` (centres unmarked) [Compound I-91] displayed an IC50 of under 100 nM. Molecule `Cc1cccn(CC2(c3ccc(Oc4cc(F)cc(F)c4)cc3)NC(=O)NC2=O)c1=O` (centres unmarked) [Compound I-99] yielded a half-maximal inhibitory concentration (IC50) of under 100 nM. In the case of `COc1ccc(C2(Cn3cccc(C)c3=O)NC(=O)NC2=O)cc1F` (centres unmarked) [Compound I-14, 5-(3-fluoro-4-methoxyphenyl)-5-[(3-methyl-2-oxopyridin-1(2H)-yl)methyl]imidazolidine-2,4-dione] it was under 100 nM; in that of `Cc1cccn(CC2(c3ccc(CCc4ccccc4)cc3)NC(=O)NC2=O)c1=O` (centres unmarked) [Compound I-107], under 100 nM.

Consider `COc1ccc(Oc2ccc(C3(Cn4cccc(C)c4=O)NC(=O)NC3=O)cc2)cc1` (centres unmarked) [Compound I-81], for which the IC50 was under 100 nM. In the case of `C=C(C)c1cccn(CC2(c3ccc(OC)cc3)NC(=O)NC2=O)c1=O` (centres unmarked) [Compound I-144] it was 100 to 1000 nM. In the case of `Cc1cccn(CC2(c3ccc(F)cc3F)NC(=O)NC2=O)c1=O` (centres unmarked) [Compound I-61] it was 100 to 1000 nM; in that of `Cc1cccn(CC2(c3ccc(-c4nn[nH]n4)cc3)NC(=O)NC2=O)c1=O` (centres unmarked) [Compound I-42, 5-[4-(2H-tetrazol-5-yl)phenyl]-5-[(3-methyl-2-oxopyridin-1(2H)-yl)methyl]imidazolidine-2,4-dione], under 100 nM; in that of `COc1ccc(C2(Cn3cccc(C)c3=O)NC(=O)NC2=O)c(OC)c1` (centres unmarked) [Compound I-18, 5-(2,4-dimethoxyphenyl)-5-[(3-methyl-2-oxopyridin-1(2H)-yl)methyl]imidazolidine-2,4-dione], under 100 nM. In the case of `COc1ccc(C2(Cn3cccc(C)c3=O)NC(=O)NC2=O)cc1OC` (centres unmarked) [Compound I-16, 5-(3,4-dimethoxyphenyl)-5-[(3-methyl-2-oxopyridin-1(2H)-yl)methyl]imidazolidine-2,4-dione] it was under 100 nM; in that of `Cc1cccn(CC2(c3cc(F)ccc3F)NC(=O)NC2=O)c1=O` (centres unmarked) [Compound I-154], under 100 nM; in that of `Cc1cccn(CC2(c3ccc(OC(F)(F)F)cc3)NC(=O)NC2=O)c1=O` (centres unmarked) [Compound I-79], under 100 nM. In the case of `Cc1cccn(CC2(c3ccc(C4CCCCC4)cc3)NC(=O)NC2=O)c1=O` (centres unmarked) [Compound I-66], the IC50 was under 100 nM.

For `Cc1cccn(CC2(c3ccc(OC(F)F)cc3)NC(=O)NC2=O)c1=O` (centres unmarked) [Compound I-78], the 50% inhibitory concentration (IC50) was under 100 nM. For `COc1ccc(OC(F)(F)F)cc1C1(Cn2cccc(C)c2=O)NC(=O)NC1=O` (centres unmarked) [Compound I-24, 5-[2-methoxy-5-(trifluoromethoxy)phenyl]-5-[(3-methyl-2-oxopyridin-1(2H)-yl)methyl]imidazolidine-2,4-dione], the 50% inhibitory concentration (IC50) lay in the range of 100 to 1000 nM. In the case of `N#Cc1ccc(C2(Cn3cccc(Cl)c3=O)NC(=O)NC2=O)cc1` (centres unmarked) [Compound I-138] it was under 100 nM; in that of `Cc1cccn(CC2(c3ccc(C#Cc4ccccc4)cc3)NC(=O)NC2=O)c1=O` (centres unmarked) [Compound I-106], under 100 nM. In the case of `Cc1cc(C2(Cn3cccc(C)c3=O)NC(=O)NC2=O)ccc1F` (centres unmarked) [Compound I-30, 5-(4-fluoro-3-methylphenyl)-5-[(3-methyl-2-oxopyridin-1(2H)-yl)methyl]imidazolidine-2,4-dione] it was under 100 nM; in that of `COc1ccccc1Oc1ccc(C2(Cn3cccc(C)c3=O)NC(=O)NC2=O)cc1F` (centres unmarked) [Compound I-114], under 100 nM. The figure for `CCc1cccn(CC2(c3ccc(OC)cc3)NC(=O)NC2=O)c1=O` (centres unmarked) [Compound I-53, 5-[(3-ethyl-2-oxopyridin-1(2H)-yl)methyl]-5-(4-methoxyphenyl)imidazolidine-2,4-dione] is 100 to 1000 nM; for `Cc1cccn(CC2(c3ccc(/C=C/C4CCCCC4)cc3)NC(=O)NC2=O)c1=O` (centres unmarked) [Compound I-109] it is 100 to 1000 nM; for `COc1ccc(C2(Cn3cccc(C)c3=O)NC(=O)NC2=O)cc1` (centres unmarked) [Compound I-2, 5-(4-methoxyphenyl)-5-[(3-methyl-2-oxopyridin-1(2H)-yl)methyl]imidazolidine-2,4-dione] it is under 100 nM.

As for `COc1cc(C2(Cn3cccc(C)c3=O)NC(=O)NC2=O)ccc1F` (centres unmarked) [Compound I-12, 5-(4-fluoro-3-methoxyphenyl)-5-[(3-methyl-2-oxopyridin-1(2H)-yl)methyl]imidazolidine-2,4-dione], the half-inhibitory concentration (IC50) is under 100 nM. The figure for `Cc1cccn(CC2(c3ccc(CC(C)C)cc3)NC(=O)NC2=O)c1=O` (centres unmarked) [Compound I-121] is under 100 nM. Consider `Cc1cccn(CC2(c3ccc4c(c3)CCCC4)NC(=O)NC2=O)c1=O` (centres unmarked) [Compound I-77], for which the IC50 is under 100 nM.

Regarding `Cc1cccn(CC2(c3ccc(Oc4ccc(F)c(F)c4)cc3)NC(=O)NC2=O)c1=O` (centres unmarked) [Compound I-98], the IC50 was under 100 nM. `COc1ccc(F)cc1C1(Cn2cccc(C)c2=O)NC(=O)NC1=O` (centres unmarked) [Compound I-69] returned an IC50 of under 100 nM. In the case of `O=C1NC(=O)C(Cn2ccccc2=O)(c2ccc(Cc3ccccc3)cc2)N1` (centres unmarked) [Compound I-156] it was 100 to 1000 nM; in that of `O=C1NC(=O)C(Cn2cccc(F)c2=O)(c2ccc(-c3ccccc3)cc2)N1` (centres unmarked) [Compound I-49, 5-([1,1′-biphenyl]-4-yl)-5-[(3-fluoro-2-oxopyridin-1(2H)-yl)methyl]imidazolidine-2,4-dione], under 100 nM. `O=C1NC(=O)C(Cn2cccc(F)c2=O)(c2ccccc2)N1` (centres unmarked) [Compound I-132] showed a concentration for half-maximal inhibition (IC50) of under 100 nM. Regarding `COc1ccc(OC)c(C2(Cn3cccc(C)c3=O)NC(=O)NC2=O)c1` (centres unmarked) [Compound I-20, 5-(2,5-dimethoxyphenyl)-5-[(3-methyl-2-oxopyridin-1(2H)-yl)methyl]imidazolidine-2,4-dione], the 50% inhibitory concentration (IC50) is under 100 nM.
